Reference: publication PMC4140764 (PLoS Neglected Tropical Diseases, 2014)
Like-named read-outs stand apart in the source and are kept apart here.

Columns and labels:
RVFV strain MP12 [1] = assay: microbe, parasite or virus in culture; type: cell-based, Rift Valley fever virus; conditions: for EC50: Rift Valley fever virus, HeLa, 24 h
in vitro [2] = conditions: human
LASV (Josiah) = assay: microbe, parasite or virus in culture; type: cell-based, Lassa virus; conditions: for EC50: Mammarenavirus lassaense, HeLa, 24 h
VEEV (1CSH3) = assay: microbe, parasite or virus in culture; type: cell-based, Venezuelan equine encephalomyelitis virus; conditions: for EC50: Venezuelan equine encephalitis virus, HeLa, 20 h
RVFV = assay: microbe, parasite or virus in culture; type: cell-based; conditions: Rift Valley fever virus, SAEC, 24 h
EBOV (Zaire) = assay: microbe, parasite or virus in culture; type: cell-based, Zaire ebolavirus
RVFV strain MP12 [3] = type: cell-based, Rift Valley fever virus
in vitro [4] = conditions: human; remark: listed apart in the source
MARV (Ci67) = assay: microbe, parasite or virus in culture; type: cell-based, Lake Victoria marburgvirus
[5] = tested on: Golgi complex in HeLa-G cells; assay: cells; type: cell-based, human; conditions: for EC50: Homo sapiens, 12 h, read-out: GC50 (effective concentration of compound that disrupts 50% of the Golgi complexes)
[6] = tested on: HeLa cells expressing H3-pS10
RVFV RNA = type: cell-based, Rift Valley fever virus
[7] = tested on: tubulin / microtubule organization in HeLa cells; type: cell-based, human
[8] = Orthomarburgvirus marburgense, HeLa, 48 h

Row | SMILES | EC50 (RVFV strain MP12 [1]) [µM] | CC50 (in vitro [2]) [µM] | EC50 (LASV (Josiah)) [µM] | EC50 (VEEV (1CSH3)) [µM] | EC50 (RVFV) [µM] | EC50 (EBOV (Zaire); Zaire ebolavirus, HeLa, 48 h) [µM] | reduction of N and Gn expression (RVFV strain MP12 [3]) | time of compound addition PI at which 50% of infection is rescued/recovered (RVFV strain MP12 [3]) [h] | EC50 (MARV (Ci67); [8]) [µM] | %GNL (lowest % of Golgi number achievable at the compound's highest concentration) [5] [%] | EC50 [5] [µM] | also measured
1 | CC1(C(=O)NCc2ccccc2)Cn2c(cc3occc32)C(=O)N1Cc1ccc(Cl)cc1 (centres unmarked) [C795-0925] | 14.4 | 111 | 81.4 | 10.2 | 12.3 | 46.6 | significantly reduced | 9 | 57.4 | 63.4 | 36.9 | antiviral activity against RVFV in secondary screening (heat map) (RVFV strain MP12 [1]): highest activity; antiviral activity against LASV in secondary screening (heat map) (LASV (Josiah)): moderate antiviral activity; antiviral activity against VEEV in secondary screening (heat map) (VEEV (1CSH3)): highest activity; antiviral activity against EBOV in secondary screening (heat map) (EBOV (Zaire)): moderate antiviral activity; CC50 (in vitro [4]): 56.7 µM; antiviral activity against MARV in secondary screening (heat map) (MARV (Ci67)): moderate antiviral activity
2 | COc1ccc(CN2C(=O)C(=O)c3cc(C)ccc32)cc1 [D011-2120] | 61.5 | 98 | 46.8 | 41.6 | 62.4 | 54.1 | ~10% | > 10 | 87.1 | 16.4 | 38.2 | antiviral activity against RVFV in secondary screening (heat map) (RVFV strain MP12 [1]): moderate activity; antiviral activity against LASV in secondary screening (heat map) (LASV (Josiah)): moderate activity; antiviral activity against VEEV in secondary screening (heat map) (VEEV (1CSH3)): high activity; number of cells expressing H3-pS10 (mitotic cells) vs mock-treated [6]: significant increase; concentration above which compound was toxic to the cells ([6]; human): > 25 µM; antiviral activity against EBOV in secondary screening (heat map) (EBOV (Zaire)): high activity; reduction of S-Gn (cell surface exposed Gn) expression (RVFV strain MP12 [3]): approximately 90%; viral RNA accumulation in the supernatants (RVFV RNA): 9%; viral RNA accumulation inside the cells (RVFV RNA): 75%; tubulin ridge value relative to BFA- or mock-treated cells [7]: approximately half; antiviral activity against MARV in secondary screening (heat map) (MARV (Ci67)): high activity
3 | Cc1ccc(NC(=O)Nc2cc(NC(=O)c3ccc(F)cc3)ccc2N2CCCC2)c(Cl)c1 [F694-1532] | 20 | 51.3 | 80.4 | 15.2 | 23.5 | 118 | significantly reduced | 8 | 143 | 19.5 | 35.3 | 
4 | COc1ccccc1CNC(=O)C1c2c(n(C)c3ccccc23)SCC(=O)N1c1ccc(OC)c(OC)c1 (centres unmarked) [G202-0362] | 13.6 |  |  | 48.9 | 11.9 | 16 | ~10% | > 10 | 34 | 61.2 | 23.7 | toxic effects on the HeLa cells (HeLa cells): no toxic effects; effects on cell division in uninfected cells [6]: no observable effects; EC50 (EBOV (Zaire)): 16.1 µM; reduction of S-Gn (cell surface exposed Gn) expression (RVFV strain MP12 [3]): approximately 90%; viral RNA accumulation in the supernatants (RVFV RNA): 28%; viral RNA accumulation inside the cells (RVFV RNA): 95%; EC50 (MARV (Ci67)): 34.1 µM
5 | Cl.N [NH4Cl, reference compound] |  |  |  |  |  |  |  |  |  |  |  | RVFV infection inhibition when added 2 h PI (RVFV strain MP12 [3]): not at the later time point; RVFV infection inhibition when added at early time points (−2 h or 0 h) (RVFV strain MP12 [3]): inhibited RVFV infection
6 | NC(=O)c1ncn([C@@H]2O[C@H](CO)[C@@H](O)[C@H]2O)n1 [Ribavirin, ribavirin, reference compound] | 27.2 |  | 6.8 | 75 | 29.5 | 60.1 |  |  | 82.2 | 87.2 |  | 
7 | COC(=O)Nc1nc2ccc(C(=O)c3cccs3)cc2[nH]1 [nocodazole, reference compound] |  |  |  |  |  |  |  |  |  |  |  | number of cells expressing H3-pS10 (mitotic cells) vs mock-treated [6]: significant increase; tubulin ridge value relative to BFA- or mock-treated cells [7]: approximately half
